In US20250195659A1, “T CELL MANUFACTURING COMPOSITIONS AND METHODS” (BIONTECH US INC., priority 2021, published 2025):

Test system: antigen specific CD8^+ T cells
Assay: IL-21 addition to NEO-STIM.RNA cultures
Type: cell-based, human
From the text: In order to improve the NEO-STIM protocol using RNA, IL-21 was explored as an addition to the protocol.

## IL-21: cytokine added to the NEO-STIM RNA protocol
NEO-PTC-01.RNA, healthy donor, day 14 read-out
  hit rate, neoantigen specific frequency and cell expansion: increased hit rate, neoantigen specific frequency and cell expansion
NEO-STIM
  central memory phenotype in antigen specific CD8^+ T cells: increases central memory phenotype in antigen specific CD8^+ T cells
NEO-STIM.RNA
  Tcm population: increases Tcm population in our NEO-STIM.RNA cultures
  expansion of cultures: improves the expansion of NEO-STIM.RNA cultures
  priming of specific T cells: improves the priming of specific T cells in NEO-STIM.RNA cultures
